{"source": "patent US20130273003A1", "about": "“Therapies for Treating Hepatitis C Virus Infection” (priority 2012, published 2013)", "key": {"[1]": {"experiment": "Study VX-222-102 Part A: PK and safety of VX-222 in HCV infected subjects, 3 days", "format": "in vivo, human", "protocol": "(§1) In Part A of Study 102 subjects were randomized to VX-222 or placebo in a 6:2 (VX-222: placebo) allocation ratio to either Cohort 1, Cohort 2, Cohort 3, or Cohort 4. Subjects enrolled in Cohort 1, Cohort 2, and Cohort 3 were administered 250 mg, 500 mf, or 750 mg VX-222 or placebo twice daily (b.i.d.) for 3 days, respectively. Subjects enrolled in Cohort 4 were administered 1,500 mg VX-222 or placebo once daily (qd) for 3 days. Standard of care treatment, Peg-IFN-alpha-2a and RBV was offered to the subjects at the end of dosing in Part A for up to 48 weeks, if judged appropriate by the physician.\nSubjects with genotype 1 chronic hepatitis C infection were exposed to multiple doses of VX-222 or placebo at 250 mg (Cohort 1), 500 mg (Cohort 2), or 750 mg (Cohort 3) b.i.d. for 3 days. […] The majority of the reported adverse events were mild in severity and there were no untoward adverse incidences or trends.\n(§2) Study Design a& Population Multicenter, randomized, double-blinded, placebo-controlled, dose-ranging study HCV genotype 1-infected patients With no evidence of cirrhosis ALT values<5×ULM Plasma HCV RNA of ≧5 log10 IU/mL at screening 4-arm comparative study (6:2 randomization VX-222: placebo) Enrollment in this dosing—ranging study was sequential 250 mg BID for 3 days 500 mg BID for 3 days 750 mg BID for 3 days 1500 mg QD for 3 days."}, "genotype 1 HCV": {"tested_on": "genotype 1 HCV", "experiment": "Study VX-222-102 Part A: HCV RNA analyses (viral load reduction)", "format": "in vivo, Hepatitis C virus", "protocol": "as §1\nAdditional results of Study VX-222-102 are described in FIGS. 2-8: Thirty-two treatment-naïve patients with chronic genotype 1 HCV infection were enrolled in the trial, including six patients in each dose group who received 250 mg of VX-222 BID, 500 mg of VX-222 BID, 750 mg of VX-222 BID, and 1,500 mg of VX-222 QD. Two patients received placebo in each of the four dosing groups, for a total of eight patients who received placebo. Part A of the trial was conducted at 10 centers in the United States, Canada and Argentina. Of the patients enrolled in the trial, 24 patients had genotype 1a HCV infection and eight patients had genotype 1b HCV infection. Six of the patients enrolled in the trial were African American, 25 were Caucasian.\nas §2"}, "[2]": {"experiment": "PK parameters of VX-222 in Study 101 Part C and Study 102 Part A", "format": "in vivo, human", "settings": "250 to 750 mg b.i.d.", "protocol": "In Part C of Study 101, VX-222 was administered as multiple doses of 750 mg b.i.d. to treatment-naïve subjects with chronic hepatitis C for 3 days. In addition, in Part A of Study 102, VX-222 was administered as multiple doses ranging from 250 mg to 750 mg BID and 1500 mg once a day to treatment-naïve subjects with chronic hepatitis C for 3 days. The PK parameters of VX-222 assessed in Study 101 (final data) and Study 102 (preliminary data) are outlined below: […]"}, "[3]": {"tested_on": "Huh-7, ET replicon cells (HCV replicon I389luc-ubi-neo/NS3-3'/5.1)", "experiment": "Drug combination luciferase assay (4-day, MacSynergy analysis)", "format": "cell-based, Hepatitis C virus", "settings": "combination with VX-950, 4 days", "from_the_text": "Replicon cell lines Huh-7, ET cells derived from the Huh-7 hepatocarcinoma cell line are obtained from Dr. Ralf Bartenschlager (Bartenschlager, R. Innovation: Hepatitis C virus replicons: potential role for drug development. Nat. Rev. Drug Discov. 2002, 1, 911-916. Krieger, N.; Lohmann, V.; Bartenschlager, R. Enhancement of hepatitis C virus RNA replication by cell culture-adaptive mutations. J. Virol. 2001, 75, 4614-4624. Lohmann, V.; Korner, F.; Koch, J.-O.; Herian, U.; Theilmann, L.; Bartenschlager, R. Replication of subgenomic hepatitis C virus RNAs in a hepatoma cell line. Science. 1999, 285, 110-113.) (Reblikon GmbH, Gau-Odernheim, Germany). […]\nHuh-7, ET replicon cells are seeded in white opaque 96-well cell culture microtiter plates at sub-confluent density (3×10^3 cells per well) in a volume of 100 μL media. […] Plates are read for Luciferase counts using a luminometer (Wallac MicroBeta Trilux, Perkin Elmer™, MA, USA). […]"}, "genotype 1 chronic HCV": {"tested_on": "genotype 1 chronic HCV", "experiment": "ZENITH Phase 2a study: VX-222 in combination with telaprevir (DUAL, QUAD)"}, "[4]": {"experiment": "Study VX-222-002: combination treatment with VX-222 and VX-950 in healthy subjects (PK, safety)", "settings": "Treatment Period 3: VX-222 and VX-950 simultaneously for 10 days, preliminary"}, "[5]": {"settings": "500 mg b.i.d., Day 3, HCV infected subjects"}}, "note": "Where “and” joins values, the source holds several entries; their conditions need not be identical. Equal values may be shown once.", "data": [{"smiles": "CC1CCC(C(=O)N(c2cc(C#CC(C)(C)C)sc2C(=O)O)C2CCC(O)CC2)CC1", "note": "(stereo not drawn) [VX-222, 5-(3,3-Dimethylbut-1-ynyl)-3-[(trans-4-hydroxycyclohexyl)-(4-trans methylcyclohexanecarbonyl)amino]thiophene-2-carboxylic acid]", "values": [{"measurement": "AUC0-12 hr Geometric Mean", "setting": "[1]; [5]", "result": 29848, "unit": "ng·h/mL"}, {"measurement": "tmax Median", "setting": "[1]; [5]", "result": 2.5, "unit": "h"}, {"measurement": "most frequently reported adverse events (at least two patients per dose group)", "setting": "[1]; blinded, pooled data for placebo or VX-222", "result": "diarrhea, headache, nausea, asthenia and fever"}, {"measurement": "tolerability", "setting": "[1]; blinded, pooled data for placebo or VX-222, four dose groups", "result": "well-tolerated across all four dose groups"}, {"measurement": "Viral Load Reduction at Day 4, Mean", "setting": "genotype 1 HCV; 250 mg b.i.d. for 3 days", "result": "−3.1"}, {"measurement": "Viral Load Reduction at Day 4, Mean", "setting": "genotype 1 HCV; 500 mg b.i.d. for 3 days", "result": "−3.4"}, {"measurement": "Viral Load Reduction at Day 4, Mean", "setting": "genotype 1 HCV; 750 mg b.i.d. for 3 days", "result": "−3.2"}, {"measurement": "dose proportionality of exposures", "setting": "[2]", "result": "increased in an approximately dose proportional manner"}, {"measurement": "synergy class with VX-950 (MacSynergy)", "setting": "[3]", "result": "Moderated synergy (50 uM^2%-100 uM^2%: Moderated synergy)"}, {"measurement": "volume of synergy with VX-950 (MacSynergy)", "setting": "[3]; listed as 1", "result": "90 uM^2% and 86 uM^2%"}, {"measurement": "viral breakthrough rate", "setting": "genotype 1 chronic HCV; DUAL treatment arms (VX-222 with telaprevir alone), 2-sided 90% confidence interval", "result": "> 25", "unit": "%"}, {"measurement": "patients eligible (undetectable HCV RNA at Weeks 2 and 8) to stop treatment after 12 weeks", "setting": "genotype 1 chronic HCV; higher VX-222 dose in the QUAD regimen (with telaprevir, peginterferon/ribavirin)", "result": 50, "unit": "%"}, {"measurement": "severe or SAEs", "setting": "[4]", "result": "no reported severe or SAEs"}]}]}
